Laboratory results as given in article PMC11195807, “Development of a multi-targeted chemotherapeutic approach based on G-quadruplex stabilisation and carbonic anhydrase inhibition” (Journal of Enzyme Inhibition and Medicinal Chemistry, 2024).
Structures can show the parent of a compound that is named as a salt.

Legend:
[1] = test system: Tel23; test: CD melting experiments, Tel23 GQ; type: binding, human; conditions: 2 molar equiv compound, T1/2 of DNA alone 53.5 °C
Source text: (§1) The 21 synthesised MTDLs were screened for their ability to bind to and stabilise DNA GQ-forming sequences, compared to berberine, by CD experiments. Indeed, circular dichroism has shown to be outstandingly useful and informative for noncanonical nucleic acid secondary structures. For this purpose, a G-rich 23-nucleotide truncation (23-nt) of the human telomeric sequence (Tel23) and two G-rich motifs from the promoter regions of c-KIT (c-Kit1) and c-MYC (c-Myc) oncogenes were employed. First, the overall topology adopted by each DNA sequence in K^+-containing buffer was verified by CD spectra. […] GQ conformation (Figure S1, Supporting Information). On the other hand, c-Kit1 and c-Myc sequences adopted a parallel GQ conformation, showing a distinctive positive band at around 260 nm and a negative one at ∼240 nm in their CD spectra (Figures S2 and S3, Supporting Information).
(§2) Afterwards, the GQ-stabilising properties of the molecules were assessed by CD melting experiments, measuring the differences in the apparent melting temperatures of the DNA in the presence and absence of compounds (ΔT1/2) (Figures S4–S6 and Table S2, Supporting Information). […] This could be explained by considering the higher accessibility of the external G-tetrads in the case of parallel GQs compared to the hybrid one[52], which would allow the additional CAI moiety of conjugated compounds to be better accommodated in the binding site. […] . […] .

[2] = test system: HeLa cells; test: MTT assay, HeLa cells in normoxia; type: cell-based; conditions: 48 h
Source text: Combining the results on carbonic anhydrase inhibition and GQ thermal stabilisation, we selected the sulphonamides S-2,0, S-4,0, S-5,0 and the coumarins C-3,2, C-4,2, C-5,2 as the most promising MTDLs to be further investigated, since able to both efficiently suppress the activity of the hCAs IX/XII and stabilise GQ structures, in vitro. Moreover, given that crystals suitable for X-ray diffraction analyses had been successfully obtained for the human telomeric DNA GQ in complex with S-3,2, we also included such sulphonamide derivative in the subsequent studies. Thus, we assessed the cytotoxicity of the selected MTDLs on CA IX-positive HeLa cells, using the MTT assay.
HeLa cells were grown in Dulbecco’s Modified Eagle’s Medium supplemented with 10% FBS, 100 U/mL penicillin, and 100 μg/mL streptomycin, at 37 °C, in a 5% CO2/95% air atmosphere. Cells were sub-cultured at 90% confluence, in the split ratio 1:8, every 3–5 days. The MTDLs used in this study, as well as the CAIs S and C, were dissolved in DMSO at 40 mM (for the sulphonamides) or 10 mM (for the coumarins) concentration. As for berberine, a 50 mM stock solution in DMSO was prepared. Each tested compound was diluted in cell culture medium to the required concentration, immediately prior to use. As regards the experiments under hypoxic conditions, an 80 mM stock solution of CoCl2 was prepared in sterile distilled water and further diluted in medium to obtain the final desired concentrations.
For the MTT experiments in the presence of normal oxygen levels, HeLa cells were seeded in 96-well plates at a density of 15,000 cells per well (culture medium volume – 100 μL/well) and incubated at 37 °C, for 24 h. The medium was then removed, and HeLa were incubated, for 48 h, with fresh medium containing increasing concentrations of MTDLs, single-target-directed agents (berberine, S, and C) or vehicle (0.5% DMSO). The MTDL C-4,2 was also tested for 12 h. As for the co-treatments, cells were co-treated for 12 h with equimolar concentrations of berberine and C. As regards the MTT experiments under hypoxic conditions, HeLa cells were seeded in 96-well plates (8,000 cells per well) and incubated overnight, pre-treated with 50 μM cobalt (II) chloride hexahydrate (CoCl2) and then, for the following 12 h, either exposed to increasing concentrations of C-4,2 or vehicle (0.5% DMSO), or co-treated with equimolar concentrations of berberine and C. Each condition was assayed in triplicate. At the end of the treatments, 10 µL of MTT reagent were added to each well, at a final concentration of 0.5 mg/mL, and the plates were incubated at 37 °C for 4 h. To dissolve the resulting purple formazan crystals, 100 μL of the solubilisation solution were added into each well and the plates were allowed to stand overnight in the incubator (37 °C, 5% CO2/95% air). Finally, the optical density of the samples (at 570 nm) was measured on an ELx800 Absorbance Microplate Reader (BioTek Instruments, Inc., Winooski, VT, USA). The percentage (%) of cell survival for each condition was calculated by using the following equation: % cell survival=OD− OD0/ODCONTROL− OD0×100 where OD is the optical density of the sample, OD0 is the optical density of the background signal, and ODCONTROL is the optical density of the control sample (cells treated with vehicle, 0.5% DMSO). The concentration able to reduce by 50% the cellular viability (IC50) was calculated, for each investigated compound, using Prism 8.0.2 (GraphPad, San Diego, CA, USA) and plotting the percentage of cell survival versus the compound concentration (µM).

[3] = test system: c-Kit1; test: CD melting experiments, c-Kit1 GQ; type: binding; conditions: 2 molar equiv compound, T1/2 of DNA alone 55.0 °C
Source text: as §1, §2

[4] = test system: Hairpin; test: CD melting experiments, hairpin DNA duplex; conditions: 2 molar equiv compound, T1/2 of DNA alone 66.0 °C
Procedure: To evaluate the possible binding and stabilisation of double-stranded DNA, a 27-nt long hairpin-forming sequence (Hairpin) was employed.
In particular, the following DNA sequences were synthesised and employed for the experiments: d([sequence]) (c-Kit1), d([sequence]) (c-Myc), d([sequence]) (Tel23), and d([sequence]) (Hairpin). Oligonucleotides were dissolved in the proper buffer and their concentration was measured by UV absorption at 90 °C, as previously reported[80]^,[81]. To achieve the correct folding of the sequences, the DNA solutions were heated in a water bath at 90 °C for 5 min, and then allowed to cool slowly to room temperature overnight. Then, DNA samples were stored at 4 °C for 24 h, before data acquisition.
The samples were prepared by dissolving the oligonucleotides in 5 mM KH2PO4/K2HPO4 buffer (pH 7.0) containing 20 mM KCl (or LiCl in the case of c-Myc because of its high thermal stability). DNA concentrations of 20 µM for GQs and 30 µM for Hairpin were used. For each compound, a 10 mM stock solution in 100% DMSO was prepared. […] CD spectra were acquired at 20 and 100 °C, in the 230–320 nm wavelength range, averaged over three scans and subtracted of the buffer baseline. The scanning speed was set to 100 nm/min, with a 0.5 s response time, and 1 nm bandwidth. CD melting experiments were carried out in the 20–100 °C temperature range, with 1 °C/min heating rate, by following changes in the CD signal at the wavelengths of the maximum CD intensity (i.e. 263 nm for c-Kit1 and c-Myc, and 290 nm for Tel23). As for Hairpin, CD melting curves were recorded by following the changes in the CD signal at 252 nm (the wavelength of the minimum CD intensity). CD melting curves were normalised between 0 and 1. […] The ΔT1/2 values correspond to the difference in the T1/2 values of the nucleic acid structures in the presence and absence of the compounds. All experiments were performed in duplicate, and the reported values are the mean of the two measurements.

[5] = test system: c-Myc; test: CD melting experiments, c-Myc GQ; type: binding; conditions: 1 molar equiv compound, T1/2 of DNA alone 70.0 °C
Source text: as §1, §2

| SMILES | melting point [°C] | further results |
| --- | --- | --- |
| COc1ccc2cc3[n+](cc2c1OCCCn1cc(COc2ccc(S(N)(=O)=O)cc2)nn1)CCc1cc2c(cc1-3)OCO2 (as salt: phosphate) [Compound 29, 10-Methoxy-9–(3-(4-((4-sulfamoylphenoxy)methyl)-1H-1,2,3-triazol-1-yl)propoxy)-5,6-dihydro-[1,3]dioxolo[4,5-g]isoquinolino[3,2-a]isoquinolin-7-ium hexafluorophosphate] | 120 to 122 |  |
| COc1ccc2cc3[n+](cc2c1OCCCn1cc(COc2ccc4ccc(=O)oc4c2)nn1)CCc1cc2c(cc1-3)OCO2 (as salt: phosphate) [Compound 34, 10-Methoxy-9–(3-(4-(((2-oxo-2H-chromen-7-yl)oxy)methyl)-1H-1,2,3-triazol-1-yl)propoxy)-5,6-dihydro-[1,3]dioxolo[4,5-g]isoquinolino[3,2-a]isoquinolin-7-ium hexafluorophosphate] | 140 |  |
| COc1ccc2cc3[n+](cc2c1OCc1cn(CCCCOc2ccc4ccc(=O)oc4c2)nn1)CCc1cc2c(cc1-3)OCO2 (as salt: phosphate) [Compound 43, 10-Methoxy-9-((1–(4-((2-oxo-2H-chromen-7-yl)oxy)butyl)-1H-1,2,3-triazol-4-yl)methoxy)-5,6-dihydro-[1,3]dioxolo[4,5-g]isoquinolino[3,2-a]isoquinolin-7-ium hexafluorophosphate] | 124 to 125 |  |
| COc1ccc2cc3[n+](cc2c1OCc1cn(CCCCCOc2ccc4ccc(=O)oc4c2)nn1)CCc1cc2c(cc1-3)OCO2 (as salt: phosphate) [Compound 44, 10-Methoxy-9-((1–(5-((2-oxo-2H-chromen-7-yl)oxy)pentyl)-1H-1,2,3-triazol-4-yl)methoxy)-5,6-dihydro-[1,3]dioxolo[4,5-g]isoquinolino[3,2-a]isoquinolin-7-ium hexafluorophosphate] | 171 to 173 |  |
| COc1ccc2cc3[n+](cc2c1OCCCCn1cc(COc2ccc(S(N)(=O)=O)cc2)nn1)CCc1cc2c(cc1-3)OCO2 (as salt: phosphate) [Compound 31, 10-Methoxy-9–(4-(4-((4-sulfamoylphenoxy)methyl)-1H-1,2,3-triazol-1-yl)butoxy)-5,6-dihydro-[1,3]dioxolo[4,5-g]isoquinolino[3,2-a]isoquinolin-7-ium hexafluorophosphate] | 165 to 168 |  |
| COc1ccc2cc3[n+](cc2c1OCCCn1cc(CCOc2ccc4ccc(=O)oc4c2)nn1)CCc1cc2c(cc1-3)OCO2 (as salt: phosphate) [Compound 35, 10-Methoxy-9–(3-(4–(2-((2-oxo-2H-chromen-7-yl)oxy)ethyl)-1H-1,2,3-triazol-1-yl)propoxy)-5,6-dihydro-[1,3]dioxolo[4,5-g]isoquinolino[3,2-a]isoquinolin-7-ium hexafluorophosphate] | 130 to 131 |  |
| COc1ccc2cc3[n+](cc2c1OCCCCn1cc(CCOc2ccc4ccc(=O)oc4c2)nn1)CCc1cc2c(cc1-3)OCO2 (as salt: phosphate) [Compound 38, 10-Methoxy-9–(4-(4–(2-((2-oxo-2H-chromen-7-yl)oxy)ethyl)-1H-1,2,3-triazol-1-yl)butoxy)-5,6-dihydro-[1,3]dioxolo[4,5-g]isoquinolino[3,2-a]isoquinolin-7-ium hexafluorophosphate] | 185 to 186 |  |
| COc1ccc2cc3[n+](cc2c1OC)CCc1cc2c(cc1-3)OCO2 [Berberine, berberine, reference compound] |  | ΔT1/2 Tel23 [1]: 9.5 °C; effect on HeLa cell viability (in words) ([2]; increasing concentrations): good dose-dependent cytotoxic effect; IC50 ([2]; Homo sapiens, normoxia, read-out: IC50 (50% of cell viability reduction), MTT assay): 75 µM; ΔT1/2 c-Kit1 [3]: 13.0 °C; ΔT1/2 Hairpin [4]: +0.2 °C; ΔT1/2 c-Myc [5]: 12.0 °C |
| COc1ccc2cc3[n+](cc2c1OCCCCCn1cc(COc2ccc(S(N)(=O)=O)cc2)nn1)CCc1cc2c(cc1-3)OCO2 (as salt: phosphate) [Compound 33, 10-Methoxy-9-((5–(4-((4-sulfamoylphenoxy)methyl)-1H-1,2,3-triazol-1-yl)pentyl)oxy)-5,6-dihydro-[1,3]dioxolo[4,5-g]isoquinolino[3,2-a]isoquinolin-7-ium hexafluorophosphate] | 168 to 171 |  |

Second part, led by results:

| melting point [°C] | SMILES | further results |
| --- | --- | --- |
| 200 to 202 | COc1ccc2cc3[n+](cc2c1OCCCCCn1cc(-c2ccc(S(N)(=O)=O)cc2)nn1)CCc1cc2c(cc1-3)OCO2 (as salt: phosphate) [Compound 32, 10-Methoxy-9-((5–(4-(4-sulfamoylphenyl)-1H-1,2,3-triazol-1-yl)pentyl)oxy)-5,6-dihydro-[1,3]dioxolo[4,5-g]isoquinolino[3,2-a]isoquinolin-7-ium hexafluorophosphate] |  |
| 183 to 185 | COc1ccc2cc3[n+](cc2c1OCCn1cc(COc2ccc(S(N)(=O)=O)cc2)nn1)CCc1cc2c(cc1-3)OCO2 (as salt: phosphate) [Compound 27, 10-Methoxy-9–(2-(4-((4-sulfamoylphenoxy)methyl)-1H-1,2,3-triazol-1-yl)ethoxy)-5,6-dihydro-[1,3]dioxolo[4,5-g]isoquinolino[3,2-a]isoquinolin-7-ium hexafluorophosphate] |  |
| 205 to 208 | COc1ccc2cc3[n+](cc2c1OCCCn1cc(-c2ccc(S(N)(=O)=O)cc2)nn1)CCc1cc2c(cc1-3)OCO2 (as salt: phosphate) [Compound 28, 10-Methoxy-9–(3-(4–(4-sulfamoylphenyl)-1H-1,2,3-triazol-1-yl)propoxy)-5,6-dihydro-[1,3]dioxolo[4,5-g]isoquinolino[3,2-a]isoquinolin-7-ium hexafluorophosphate] |  |
| 212 to 215 | COc1ccc2cc3[n+](cc2c1OCCn1cc(-c2ccc(S(N)(=O)=O)cc2)nn1)CCc1cc2c(cc1-3)OCO2 (as salt: phosphate) [Compound 26, 10-Methoxy-9–(2-(4–(4-sulfamoylphenyl)-1H-1,2,3-triazol-1-yl)ethoxy)-5,6-dihydro-[1,3]dioxolo[4,5-g]isoquinolino[3,2-a]isoquinolin-7-ium hexafluorophosphate] |  |
| 195 to 198 | COc1ccc2cc3[n+](cc2c1OCc1cn(-c2cccc(S(N)(=O)=O)c2)nn1)CCc1cc2c(cc1-3)OCO2 (as salt: phosphate) [Compound 40, 10-Methoxy-9-((1–(3-sulfamoylphenyl)-1H-1,2,3-triazol-4-yl)methoxy)-5,6-dihydro-[1,3]dioxolo[4,5-g]isoquinolino[3,2-a]isoquinolin-7-ium hexafluorophosphate] |  |
